The source of these data is ChEMBL document CHEMBL1137932, “Synthesis of S-alkyl L-homocysteine analogues of glutathione and their kinetic studies with gamma-glutamyl transpeptidase” (Bioorg Med Chem Lett, 2004).

Common to all, as to type: tissue-based
The target in experiment [1] is T1, Glutathione hydrolase 1 proenzyme (Rattus norvegicus, UniProt P07314). Kind of experiment: Compound tested for the inhibition of Gamma-glutamyltranspeptidase in rat kidney at pH 8.0 at 37 degree C (Competitive inhibition).
T1 sequence (P07314 1-379 limits assumed): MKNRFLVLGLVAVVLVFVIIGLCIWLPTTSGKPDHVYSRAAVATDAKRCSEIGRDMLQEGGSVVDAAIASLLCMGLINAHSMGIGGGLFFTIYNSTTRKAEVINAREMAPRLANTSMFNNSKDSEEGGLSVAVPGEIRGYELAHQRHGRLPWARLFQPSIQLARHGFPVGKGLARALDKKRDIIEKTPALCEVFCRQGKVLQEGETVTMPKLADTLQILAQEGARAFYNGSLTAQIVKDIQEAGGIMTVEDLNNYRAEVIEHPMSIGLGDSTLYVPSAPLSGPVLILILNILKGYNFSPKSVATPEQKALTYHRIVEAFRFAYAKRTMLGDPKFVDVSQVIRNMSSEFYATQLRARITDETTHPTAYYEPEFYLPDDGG
T1 sequence (P07314 380-568 limits assumed): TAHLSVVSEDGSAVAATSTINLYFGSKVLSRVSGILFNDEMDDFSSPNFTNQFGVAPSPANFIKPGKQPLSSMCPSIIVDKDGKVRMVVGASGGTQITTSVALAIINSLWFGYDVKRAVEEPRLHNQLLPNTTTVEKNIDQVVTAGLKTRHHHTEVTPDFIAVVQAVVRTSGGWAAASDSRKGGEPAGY
The target of experiment [2] is T1, Glutathione hydrolase 1 proenzyme. Kind of experiment: Compound tested for the inhibition of Gamma-glutamyltranspeptidase in rat kidney at pH 8.0 at 37 degree C.
The target is the same in experiment [3]. As to the kind of experiment: Compound tested for the inhibition of Gamma-glutamyltranspeptidase in rat kidney at pH 8.0 at 37 degree C; N/0=No inhibition observed up to 20 mM.

Molecules are shown by their SMILES.

Compound `NC(CC[S+]([O-])CCC(=O)NCC(=O)O)C(=O)O` (configuration not stated) yielded a Ki in experiment [1] of 53 µM. `N[C@@H](CC[S+]([O-])Cc1ccc(C(=O)NCC(=O)O)cc1)C(=O)O` (some centres not stated) showed a Ki in experiment [1] of 230 µM.

In experiment [1], `N[C@@H](CCSCCC(=O)NCC(=O)O)C(=O)O` displayed a Ki of 520 µM. Regarding `N[C@@H](CCS(=O)(=O)CCC(=O)NCC(=O)O)C(=O)O`, in experiment [2], the affinity corresponds to a Ki of 3500 µM.

With `CS(=O)(=O)CC[C@H](N)C(=O)O` [METHIONINE SULFONE], in experiment [3], the Ki result is recorded as “No inhibition to 20mM”. Compound `C[S+]([O-])CC[C@H](N)C(=O)O` (some centres not stated) [METHIONINE SULFOXIDE] had a Ki in experiment [1] of 5900 µM. Turning to `CSCC[C@H](N)C(=O)O` [METHIONINE], in experiment [1], the Ki stood at 26900 µM.

As usually defined, the Ki is the dissociation constant of the complex between target and ligand, obtained from inhibition or displacement. The low end stands for tighter binding, the high end for weaker binding.
